Source: US20140341857A1, “COMBINATION OF ONCOLYTIC AD[…] HISTONE DEACETYLASE INHIBITORS” (INSTITUT GUSTAVE ROUSSY, priority 2011, published 2014)

How the values were obtained:
SW480 = assay: MTT assay, growth inhibition by HDACi after 48 h; type: cell-based; details: SW480, 48 h of treatment
Description: (§1) HT29, HCT116, SW480, SW620 colon adenocarcinomas cell lines, 911 human embryonic retinal cell lines and HEK293, a human embryonic kidney cell line expressing the adenoviral E1 protein were purchased from ATCC (American Tissue Culture Collection, Manassas, Va., USA).
(§2) The same medium was used for SW480 and SW620 supplemented with 1 mM Sodium Pyruvate (Invitrogen/GIBCO)
(§3) First, three different histone deacetylase inhibitors: Trichostatin A (TSA), an hydroxamic acid; Valproic Acid (VPA), a short-chain aliphatic acid, and sodium butyrate (Nabu), a short-chain aliphatic acid, were evaluated for their ability to induce inhibition of the growth of these cells after 48 h of treatment using an MTT assay.

SW620 = assay: MTT assay, growth inhibition by HDACi after 48 h; type: cell-based
Description: as §1, §2, §3

HCT116 = assay: MTT assay, growth inhibition by HDACi after 48 h; type: cell-based
Description: as §1
HCT116 were cultured, in Mc Coy's 5A mediums with 10% heat-inactivated-FBS.
as §3

HT29 = assay: MTT assay, growth inhibition by HDACi after 48 h; type: cell-based
Description: as §1
HT29 and 911 were maintained in Dulbecco's modified Eagle's medium (DMEM; GIBCO) supplemented with 10% heat-inactivated fetal bovine serum (FBS; GIBCO).
as §3

γH2AX [1] = assay: γH2AX expression, Western blot; type: cell-based; details: CRAd MOI 15.6, VPA 10mM (the IC50 of HT29; cell line and time not given)
Description: Colon carcinoma HT29 and HCT116 cells (5·10^5) in MW6 were treated with Δ24 CRAd (MOI 15.6 vp/cell), with or without VPA (IC25 and IC50). At indicated time points p.i., the cells were harvested and protein extracts were prepared in RIPA buffer (10 mM Tris base pH 8.8, NaCl 150 mM, EDTA 1mM, NP-40 1%, deoxycholic acid 1%) supplemented with mini EDTA proteases (ROCHE LABORATORY). Protein extracts were sonicated and centrifuged. Then, protein extracts (25 μg) were run into a NuPage (INVITROGEN, France), transferred onto a nitrocellulose membrane, and probed with anti-phospho-H2AX (Ser139) antibody (clone JBW301, MILLIPORE) or anti-actin antibodies (AC-15, SIGMA-ALDRICH) followed by HRP-conjugated secondary antibody. γH2AX was quantified by IMAGE-J software and expressed as arbitrary units relative to untreated cells.

Δ24 CRAd = assay: CRAd production in HT29 cells, plaque assay on 911 cells; type: cell-based; details: HT29, CRAd MOI 15.6, VPA IC25 and IC50, 3 days
Description: Colon cancer HT29 cells (5·10^5) in 6-well plates were infected with Δ24 CRAd (MOI 15.6 vp/cell) alone or in combination with VPA (IC50 and IC25) in adequate medium with 2% FBS. After 1 h, 3 ml of growth medium with or without VPA was added. Then, cells were scrapped and cells and medium were harvested at different times post-infection (from day 1 to day 6). After submission of cells and medium to freeze-thaw cycles, the amount of infectious particles was determined by plaque assay on 911 cells and expressed as plaque forming unit (pfu)/ml.
In a second series of experimentations, HT29 cells (5·10^5 cells/well) in 6-well plates were infected with CRAd (MOI 15.6 vp/cell) with or without VPA (IC50 and IC25) in adequate medium supplemented with 2% FBS. After 1 h, 3 ml of growth medium with or without VPA was added. After 3 days, cells and medium were independently harvested and lysed by freeze-thaw cycles. Then, the amount of infectious particles was measured by plaque assay on 911 cells, and expressed as pfu/ml.

viral hexon protein = assay: Immunohistochemistry of viral hexon protein in HT29 tumor xenografts; type: in vivo, mice; details: tumors excised at day 10, VPA 300 mg/kg
Description: The effects of VPA on CRAd replication were also tested in vivo in HT29 tumor xenografts of mice injected with PBS, Δ24 CRAd, or VPA (300 mg/kg)+CRAd as described in Example 2 above. Tumors were excised at day 10, and expression of viral hexon protein was evaluated by immunohistochemistry. Tumors were fixed in FineFix (from IGR) paraffin-embedded, and cut into 4-μm-thick sections. Hematoxylin-eosin-safranin staining was performed on all of the xenografts for analysis of morphology. The polyclonal anti-adenovirus hexon protein antibody AB 1056 (CHEMICON INTERNATIONAL, Temecula, Calif.), diluted 1:300, was detected by a biotinylated rabbit antigoat immunoglobulin antibody streptavidin-horseradish peroxidase conjugate (DAKO), and the chromogen diaminobenzidine. Slides were counterstained with hematoxylin.

γH2AX [2] = assay: γH2AX expression, confocal microscopy in HT29 cells; type: cell-based; details: HT29, 3 days, CRAd MOI 15.6, VPA IC25/IC50
Description: HT29 cells were seeded at 5·10^5 cells/well on 6-well plates and cultured overnight. Cells were treated with Δ24 CRAd (MOI 15.6 vp/cell), VPA (IC25, IC50) or both (CRAd+VPA), or with the non-replicative adenovirus AE18 during 72 h. Then non-adherent tumor cells and adherent tumor cells were detached with TrypLE™ Express (1X) (INVITROGEN) cytospined on slides (500 rpm, 5 min), washed with PBS and fixed with 4% paraformaldehyde for 30 min. After permeabilization with 0.5% Triton X-100 for 10 min, samples were blocked with 3% BSA for 30 min. Samples were exposed to primary antibodies (1:1,000 anti-γH2AX, for 1-2 h in PBS/BSA) followed by Alexa Fluor-conjugated secondary antibody staining for 1 h. When filamentous actin was also stained, tetramethyl-rhodamine B isothiocyanate-labeled phalloidin (SIGMA) was added with the secondary antibody incubation. Cells were washed four times with PBS after secondary antibody staining and then mounted on glass slides by using mounting medium with DAPI (VECTASHIELD; Vector Laboratories). All images were obtained by using the ZEISS LSM 510 confocal microscope.

HT29 cells [3] = assay: Cell size and nucleus morphology, Giemsa staining; type: cell-based; details: HT29, 72 h, CRAd MOI 15.6, VPA IC25/IC50
Description: HT29 cells in 6-well plates (5·10^5 cells/well) were untreated or treated with Δ24 CRAd (MOI 15.6 vp/cell), VPA (IC25, IC50) or both. After 72 h, cells were harvested, cytospined on slides, fixed with Wright and stained for 15 minutes in Giemsa solution. After washing, dry slides were mounted with a coverslip. Cells and nuclei observations were performed using phase-contrast microscopy.

[4] = test system: E1A and fiber adenoviral proteins; assay: Western blot of early (E1A) and late (fiber) adenoviral proteins in HT29 cells; type: cell-based
Description: For determining viral protein expression, HT29 cells (5·10^5) in MW6 medium were treated with Δ24 CRAd (MOI 15.6 vp/cell), with or without VPA. At different time points p.i. (24 h, 48 h, and 72 h), tumor cells were harvested and protein extracts were prepared in RIPA buffer (10 mM Tris base pH 8.8, NaCl 150 mM, EDTA 1 mM, NP-40 1%, deoxycholic acid 1%) supplemented with mini EDTA proteases (Roche laboratory). In order to quantify the expression of early (E1A) and late (fiber) adenoviral proteins, proteins (25 μg) were run into a NuPage (Invitrogen, France), transferred onto a nitrocellulose membrane, and probed with anti-fiber antibody (AB4 clone 4D2, THERMOSCIENTIFIC), anti-E1A antibody (sc-430, Santa Cruz), or (as a control) anti-actin antibody (Clone AC-15, SIGMA-ALDRICH) followed by HRP-conjugated secondary antibody.

HT29 tumor xenografts = assay: HT29 tumor xenograft growth in nude mice; type: in vivo, athymic NU/NU female mice
Description: HT29 cells (10^7 cells) in 100 μl PBS were injected subcutaneously into the right flank of athymic NU/NU female mice housed at the Institut Gustave Roussy.
First, the sensitivity of tumor xenografts to VPA treatment was evaluated. When tumors reached 70-100 mm^3, mice were injected intraperitoneally with VPA (200 mg/kg or 300 mg/kg) or PBS in a volume of 200 μl five consecutive days per week. Tumor volume was evaluated twice a week for 4 weeks by measuring with calipers.
In a second series of experimentation, when tumors reached 70-100 mm^3, mice were first injected subcutaneously with Δ24 CRAd, or with a non-replicative adenovirus (AdCO1, deleted of region E1) or with PBS three consecutive days and every 7 days for 4 weeks. In parallel and beginning at day 4, mice received intraperitoneal injection of VPA (300 mg/kg) or PBS in a volume of 200 μl five consecutive days per week until the end of the protocol. Tumor growth was measured twice a week for 4 weeks.

p21 = p21 expression, Western blot; type: cell-based; details: HCT116, VPA IC25 and IC50, 24, 48, 72 h
Description: Colon cancer cells HT29 or HCT116 (5·10^5) in MW6 were treated with Δ24 CRAd (MOI 15.6 vp/cell), with or without VPA (IC25 and IC50). At 24, 48, and 72 h p.i., tumor cells were harvested and protein extracts were prepared in RIPA buffer (10 mM Tris base pH 8.8, NaCl 150 mM, EDTA 1 mM, NP-40 1%, deoxycholic acid 1%) supplemented with mini EDTA proteases (ROCHE LABORATORY). Proteins (25 μg) were run into a NuPage (INVITROGEN, France), transferred onto a nitrocellulose membrane, and probed with anti-p21/Waf1 mouse monoclonal antibody (EA10, CALBIOCHEM) and anti-actin antibody (AC-15, SIGMA-ALDRICH), followed by HRP-conjugated secondary antibody. p21 expression was quantified by IMAGE-J software and expressed as arbitrary units relative to untreated cells.

HT29 cells [5] = assay: LDH release cell death assay; type: cell-based; details: HT29, day 3, CRAd MOI 15.6 or VPA IC25/IC50 alone
Description: Colon carcinoma HT29 cells were untreated or treated with CRAd (MOI 15.6 vp/cell), VPA (IC25 or IC50) or both. After 3 days, cell death was quantified by determination of Lactate deshydrogenase (LDH) release in cell supernatant, using Tox Cytotoxicity Assay kit (TOX7, Sigma Aldrich, France). The results were expressed relative to total LDH level obtained with cells treated with identical conditions and permeabilized with triton 0.1%. The results (Mean+SD) are shown on FIG. 7. They are representative of two experiments.

HT29 cells [6] = assay: MTT cell survival after oncolytic adenovirus with or without HDACi; type: cell-based; details: HT29, 3 days p.i., co-treatment with VPA and AE18
Description: Then the cells were treated with one of these HDACis (at concentrations in the range of IC50/2 and IC50) and transduced with the oncolytic adenovirus Δ24, at increasing multiplicity of infection (MOI). The survival of the cells at day 3 p.i. was evaluated using the MTT assay.
Colon carcinoma cells (HT29, HCT116, SW480, SW620) were plated in quadruplicates on 96-well plates (10^4 cells/well) and were treated with different MOI of Δ24 CRAd (ranging from 0 to 1000 vp/cell), VPA (0, IC25 or IC50) or a combination of CRAd and VPA. After 3 days, cell viability was measured with MTT assay and the results (means+SD) were expressed relative to non-infected cells treated with different VPA doses (0, IC25 and IC50). The results are representative of three experiments.
Colon carcinoma cells (HT29, HCT116) were treated in quadruplicates with Δ24 CRAd (MOI 15.6 vp/cell) without or with VPA (IC25 or IC50) and cell viability was measured at different time points thereafter using a MTT assay. The results (means+SD) were expressed relative to untreated or VPA (0, IC25 and IC50)-treated cells at the same time point. […] They are representative of two experiments.
The effects of a co-treatment with the oncolytic adenovirus Δ24 and the histone deacetylase inhibitor VPA on the survival of HT29 cells 3 days p.i. were compared with those of a co-treatment with VPA and the recombinant adenovirus AE18. […]

[7] = Homo sapiens, SW-620, SW620, 48 h of treatment
[8] = Homo sapiens, HCT-116, HCT116, 48 h of treatment
[9] = Homo sapiens, HT-29, HT29, 48 h of treatment

In the case of CC(/C=C/C(=O)NO)=C\[C@@H](C)C(=O)c1ccc(N(C)C)cc1 [TSA, Trichostatin A], the IC50 (SW480) is reported as 0.075 µM, the IC50 (SW620; SW620, 48 h of treatment) is reported as 0.037 µM and the IC50 (HCT116; HCT116, 48 h of treatment) is reported as 0.035 µM. The IC50 (HT29; HT29, 48 h of treatment) was 0.15 µM.
CCCC(=O)[O-].[Na+] [Nabu, sodium butyrate] showed an IC50 (SW480; Homo sapiens) of 7000 µM, an IC50 (SW620; [7]) of 3000 µM and an IC50 (HCT116; [8]) of 1000 µM. The IC50 (HT29; [9]) was 4000 µM.
For CCCC(CCC)C(=O)O [VPA, Valproic Acid], the IC50 (SW480; Homo sapiens) was 10000 µM, the IC50 (SW620; [7]) was 5000 µM and the “level of γH2AX relative to untreated cells” value (γH2AX [1]) was 5.6 fold. For the same molecule, the “viral content in cell-associated and extracellular fractions” value (Δ24 CRAd) was “reduction of viral content”, the “amount of hexon protein in the tumor” value (viral hexon protein) was “decreased” and the “γH2AX expression (confocal microscopy)” value (γH2AX [2]) was “much less than CRAd”. For the same molecule, the “cell size and nucleus morphology” value (HT29 cells [3]) was “increase in cell size and cell nuclei with well-defined shape”, the IC50 (HCT116; [8]) was 1200 µM and the E1A expression ([4]; HT29, CRAd MOI 15.6, 24 h, 48 h, 72 h) was “did not modify E1A expression”. For the same molecule, the “expression of the fiber protein” value ([4]; HT29, CRAd MOI 15.6, day 1) was “strongly diminished”, the “expression of the fiber protein” value ([4]; HT29, CRAd MOI 15.6, day 2 and 3) was “minor effect” and the “kinetic of tumor growth vs PBS” value (HT29 tumor xenografts; VPA 200 mg/kg intraperitoneally, five consecutive days per week, 4 weeks) was “No difference”. For the same molecule, the “tumor growth vs PBS” value (HT29 tumor xenografts; VPA 300 mg/kg intraperitoneally, five consecutive days per week, 4 weeks) was “significant delay in tumor growth”, the toxicity (HT29 tumor xenografts; VPA 300 mg/kg intraperitoneally, mice) was “did not trigger significant toxicity” and the “tumor growth compared to PBS-injected mice” value (HT29 tumor xenografts; second series: virus subcutaneously three consecutive days every 7 days, VPA 300 mg/kg i.p. from day 4, 4 weeks) was “reduction of tumor growth”. For the same molecule, the “increase in p21 expression compared to untreated cells” value (p21) was “up to 6 fold”, the “LDH release compared to untreated cells” value (HT29 cells [5]) was “increase in LDH release” and the IC50 (HT29; [9]) was 10000 µM. The “effect of VPA on the cytotoxicity of the recombinant adenovirus AE18” value (HT29 cells [6]) was “no effect”.
